Converted amounts (≈) assume the structure as drawn.
Experiments:
[1] = molecular target: T1, Amyloid-beta precursor protein (Homo sapiens, UniProt P05067); assay: Inhibition of Abeta42 (unknown origin) aggregation assessed as ThT fluorescence at 330 uM measured after 24 hrs by ThT fluorescence assay relative to DMSO control; parameters: scale not given: the % may be the effect or the level left
[2] = molecular target: T1, Amyloid-beta precursor protein; assay: Inhibition of Abeta42 (unknown origin) aggregation measured after 24 hrs by ThT fluorescence assay
[3] = Apparent permeability of the compound from apical to basolateral side; format: physicochemical; settings: not told
[4] = Lipophilicity, logD of the compound; format: physicochemical; settings: octanol/water
[5] = Half life in human liver S9 fraction; format: ADME, subcellular
[6] = AUC in Swiss mouse plasma at 2 mg/kg, iv; format: ADME, organism-based
[7] = Ratio of drug level in brain to plasma in Swiss mouse at 2 mg/kg, iv measured after 5 mins; format: ADME, organism-based; settings: brain and plasma, read-out: BPR
[8] = Volume of distribution in Swiss mouse plasma at 2 mg/kg, iv; format: ADME, organism-based
[9] = Aqueous solubility of the compound in PBS at pH 7.4; format: physicochemical
[10] = Half life in Swiss mouse plasma at 2 mg/kg, iv; format: ADME, organism-based
[11] = tested on: P-gp; assay: Substrate activity at P-gp (unknown origin) assessed as efflux ratio of apparent permeability of the compound; format: ADME; settings: human, not told
[12] = tested on: Liver; assay: Clearance in human liver S9 fraction; format: ADME, subcellular
[13] = Half life in Swiss mouse brain at 2 mg/kg, iv; format: ADME, organism-based
[14] = AUC in Swiss mouse brain at 2 mg/kg, iv; format: ADME, organism-based
[15] = Cmax in Swiss mouse plasma at 2 mg/kg, iv; format: ADME, organism-based; parameters: dose 2 mg/kg, route intravenous
[16] = Cmax in Swiss mouse brain at 2 mg/kg, iv; format: ADME, organism-based; parameters: dose 2 mg/kg, route intravenous
[17] = Volume of distribution in Swiss mouse brain at 2 mg/kg, iv; format: ADME, organism-based

T1 sequence (P05067 whole entry): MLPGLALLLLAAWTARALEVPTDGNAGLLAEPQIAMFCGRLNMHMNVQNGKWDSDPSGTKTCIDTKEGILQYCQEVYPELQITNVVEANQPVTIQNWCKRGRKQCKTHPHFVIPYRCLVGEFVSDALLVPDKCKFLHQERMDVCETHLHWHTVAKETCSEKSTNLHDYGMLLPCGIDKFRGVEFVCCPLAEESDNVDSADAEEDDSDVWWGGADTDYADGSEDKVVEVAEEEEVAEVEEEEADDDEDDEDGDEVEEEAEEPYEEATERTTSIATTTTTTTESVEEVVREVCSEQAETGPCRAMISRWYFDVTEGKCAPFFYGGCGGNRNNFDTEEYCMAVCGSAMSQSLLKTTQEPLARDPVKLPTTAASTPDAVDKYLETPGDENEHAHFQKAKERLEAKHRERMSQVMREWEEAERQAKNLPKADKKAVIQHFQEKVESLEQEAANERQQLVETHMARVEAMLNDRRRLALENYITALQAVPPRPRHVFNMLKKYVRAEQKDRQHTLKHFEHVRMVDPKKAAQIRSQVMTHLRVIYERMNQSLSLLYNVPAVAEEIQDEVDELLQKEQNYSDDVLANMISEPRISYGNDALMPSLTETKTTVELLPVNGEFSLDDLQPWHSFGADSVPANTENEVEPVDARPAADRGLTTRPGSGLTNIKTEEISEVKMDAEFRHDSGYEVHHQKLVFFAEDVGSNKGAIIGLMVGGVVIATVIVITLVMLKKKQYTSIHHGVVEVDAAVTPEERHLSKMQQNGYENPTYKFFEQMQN

SMILES | Activity [1] [%] | IC50 [2] [µM] | also measured
CNc1cccc(CCNc2cccc(CCN(c3ccccn3)c3ccccn3)n2)n1 | 16 | 240 | 
Nc1c(/N=N/c2ccc(-c3ccc(/N=N/c4cc(S(=O)(=O)O)c5ccccc5c4N)cc3)cc2)cc(S(=O)(=O)O)c2ccccc12 [CONGO RED] |  | 1.3 | 
CNc1cccc(CCNc2cccc(NC)n2)n1 | 23 |  | 
CNc1cccc(CCCNc2cccc(CCCNc3ccccn3)n2)n1 | 23 |  | 
CNc1cccc(CNc2cccc(CCN(c3ccccn3)c3ccccn3)n2)n1 | 23 |  | 
CNc1cccc(CNc2cccc(CNc3ccccn3)n2)n1 | > 60 |  | solubility [9]: 18 µM (≈ 5.77 µg/mL)
CNc1cccc(NCCc2ccccn2)n1 | 36 |  | 

Second part, led by results:

Activity [1] [%] | IC50 [2] [µM] | SMILES | also measured
23 |  | CNc1cccc(CCNc2cccc(CCCNc3ccccn3)n2)n1 | 
12 | 25 | CNc1cccc(NCCc2cccc(NCCc3ccccn3)n2)n1 | Papp A→B [3]: 49.2 ×10⁻⁶ cm/s; logD [4]: 2.96; half-life [5]: 10 min; AUC [6]: 150 ng·h/mL; Kp at 5 min [7]: 5.98; Vd [8]: 12 L/kg; solubility [9]: > 200 µM; half-life [10]: 37.8 min; efflux ratio [11]: 0.78; CLH [12]: 0.07 mL/min/mg; half-life [13]: 314 min; AUC [14]: 863 ng·h/mL; Cmax [15]: 308 ng/mL; Cmax [16]: 1840 ng/mL; Vd [17]: 18.9 L/kg
12 |  | CNc1cccc(CCNc2cccc(NCCc3ccccn3)n2)n1 | solubility [9]: > 200 µM
53 |  | CNc1cccc(CCNc2cccc(CNc3ccccn3)n2)n1 | 
16 | 280 | CNc1cccc(CCNc2cccc(CCNc3ccccn3)n2)n1 | 
> 60 |  | CNc1cccc(CNc2cccc(CCNc3ccccn3)n2)n1 | 
14 |  | CNc1cccc(NCCc2cccc(NCc3ccccn3)n2)n1 | 
12 | 17 | CNc1cccc(NCCCc2cccc(NCCCc3ccccn3)n2)n1 | 
